Data from patent publication US9695155B2, “Herbicidal substituted pyrimidinyloxy benzene compounds” (E. I. DU PONT DE NEMOURS AND COMPANY, priority 2013, dated 2017).

How the values were obtained:
johnsongrass = test: Test C postemergence; type: in vivo, Sorghum halepense; details: Sorghum halepense, post-emergence
Procedure, shortened: (§1)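 Greenhouse herbicide screen. Pre: seeded loam/sand, sprayed at planting. Post: 1–4 leaf plants (2–18 cm) in peat-based mix. Formulation: solvent mixture + surfactant, non-phytotoxic. Readout: visual % control vs untreated, 13–15 d; dash = not tested.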

wheat, winter = test: Test C preemergence; type: in vivo, Triticum aestivum; details: Triticum aestivum, pre-emergence
Procedure, shortened: as §1

lambsquarters = test: Test C preemergence; type: in vivo, Chenopodium album; details: Chenopodium album, pre-emergence
Procedure, shortened: as §1

Heteranthera limosa = test: Test B flooded paddy test; type: in vivo; details: Heteranthera limosa, Flood, 250 g ai/ha; 0 to 100 scale where 0 is no effect and 100 is complete control; read-out: Plant response rating, Ducksalad
Procedure, shortened: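 Visual ratings on a 0 to 100 scale, where 100 means complete control, compared treated plants with controls after 13 to 15 days in a greenhouse. Treatment went into paddy water 3 cm deep over the soil, applied to plants at the 2-leaf stage.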

giant foxtail [1] = test: Test A preemergence; type: in vivo, Setaria faberii; details: Setaria faberi, pre-emergence, 240 h
Procedure, shortened: (§2)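 Pre- and postemergence greenhouse screen. Soil: loam + sand. Spray carrier: solvent mixture, non-phytotoxic, with surfactant. Post timing at 1–2 leaves, height 2–10 cm. Readout: visual injury on a 0–100 scale roughly 10 days after application, untreated plants as reference.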

blackgrass = test: Test C preemergence; type: in vivo, Alopecurus myosuroides; details: Alopecurus myosuroides, pre-emergence
Procedure, shortened: as §1

velvetleaf = test: Test C preemergence; type: in vivo, Abutilon theophrasti; details: Abutilon theophrasti, pre-emergence
Procedure, shortened: as §1

barnyardgrass [2] = test: Test C preemergence; type: in vivo, Echinochloa crus-galli; details: Echinochloa crus-galli, pre-emergence
Procedure, shortened: as §1

giant foxtail [3] = test: Test A postemergence; type: in vivo, Setaria faberii; details: Setaria faberi, post-emergence, 240 h
Procedure, shortened: as §2

Italian ryegrass [4] = test: Test C postemergence; type: in vivo, Lolium multiflorum; details: Lolium multiflorum, post-emergence
Procedure, shortened: as §1

morningglory = test: Test A postemergence; type: in vivo, Ipomoea spp.; details: Ipomoea, post-emergence, 240 h
Procedure, shortened: as §2

pigweed = test: Test A postemergence; type: in vivo, Amaranthus retroflexus; details: Amaranthus retroflexus, post-emergence
Procedure, shortened: as §2

barnyardgrass [5] = test: Test A postemergence; type: in vivo, Echinochloa crus-galli; details: Echinochloa crus-galli, post-emergence, 240 h
Procedure, shortened: as §2

Italian ryegrass [6] = test: Test C preemergence; type: in vivo, Lolium multiflorum; details: Lolium multiflorum, pre-emergence
Procedure, shortened: as §1

soybean = test: Test C postemergence; type: in vivo, Glycine max; details: Glycine max, post-emergence
Procedure, shortened: as §1

[7] = 125 g ai/ha, 0 to 100 scale where 0 is no effect and 100 is complete control, read-out: Plant response rating, Foxtail, Giant

Question: Which results are given for `N#Cc1cccc(Oc2ncc(Br)cn2)c1-n1cc(C(F)(F)F)cn1` [Compound 59, 3-[(5-bromo-2-pyrimidinyl)oxy]-2-[4-(trifluoromethyl)-1H-pyrazol-1-yl]benzonitrile]?
Answer: pest or weed control at 125 g/ha (johnsongrass; 125 g ai/ha, postemergence, read-out: Plant response rating (0 to 100), Johnsongrass): 35%; pest or weed control at 250 g/ha (johnsongrass; 250 g ai/ha, postemergence, read-out: Plant response rating (0 to 100), Johnsongrass): 85%; pest or weed control at 31 g/ha (johnsongrass; Postemergence, 31 g ai/ha, scale 0 to 100 (0 no effect, 100 complete control), 13 to 15 days, read-out: Plant response rating, Johnsongrass): 15%; pest or weed control at 62 g/ha (johnsongrass; Postemergence, 62 g ai/ha, scale 0 to 100 (0 no effect, 100 complete control), read-out: Plant response rating, Johnsongrass): 35%; plant injury at 62 g/ha (wheat, winter; 62 g ai/ha, preemergence, scale 0 (no effect) to 100 (complete control), read-out: Wheat plant response rating): 50%; plant injury at 125 g/ha (wheat, winter; 125 g ai/ha, preemergence, scale 0 (no effect) to 100 (complete control), read-out: Wheat plant response rating): 85%; plant injury at 250 g/ha (wheat, winter; 250 g ai/ha, preemergence, scale 0 (no effect) to 100 (complete control), read-out: Wheat plant response rating): 90%; plant injury at 31 g/ha (wheat, winter; Preemergence, 31 g ai/ha, scale 0 to 100, 0 no effect, 100 complete control, read-out: Plant response rating, Wheat): 0%; pest or weed control at 62 g/ha (lambsquarters; 62 g ai/ha, preemergence, scale 0 (no effect) to 100 (complete control), read-out: Lambsquarters plant response rating): 100%; pest or weed control at 125 g/ha (lambsquarters; 125 g ai/ha, preemergence, scale 0 (no effect) to 100 (complete control), read-out: Lambsquarters plant response rating): 100%; pest or weed control at 250 g/ha (lambsquarters; 250 g ai/ha, preemergence, scale 0 (no effect) to 100 (complete control), read-out: Lambsquarters plant response rating): 100%; pest or weed control at 31 g/ha (lambsquarters; Preemergence, 31 g ai/ha, scale 0 to 100, 0 no effect, 100 complete control, read-out: Plant response rating, Lambsquarters): 100%; pest or weed control at 250 g/ha (Heteranthera limosa): 80%; pest or weed control at 125 g/ha (giant foxtail [1]; [7]): 100%; pest or weed control at 500 g/ha (giant foxtail [1]; 500 g ai/ha, 0 to 100 scale, 0 no effect, 100 complete control, approx. 10 days, read-out: Foxtail, Giant plant response rating): 100%; pest or weed control at 62 g/ha (blackgrass; 62 g ai/ha, preemergence, scale 0 (no effect) to 100 (complete control), read-out: Blackgrass plant response rating): 85%; pest or weed control at 125 g/ha (blackgrass; 125 g ai/ha, preemergence, scale 0 (no effect) to 100 (complete control), read-out: Blackgrass plant response rating): 90%; pest or weed control at 250 g/ha (blackgrass; 250 g ai/ha, preemergence, scale 0 (no effect) to 100 (complete control), read-out: Blackgrass plant response rating): 90%; pest or weed control at 31 g/ha (blackgrass; Preemergence, 31 g ai/ha, scale 0 to 100, 0 no effect, 100 complete control, read-out: Plant response rating, Blackgrass): 5%; pest or weed control at 62 g/ha (velvetleaf; 62 g ai/ha, preemergence, scale 0 (no effect) to 100 (complete control), read-out: Velvetleaf plant response rating): 100%; pest or weed control at 125 g/ha (velvetleaf; 125 g ai/ha, preemergence, scale 0 (no effect) to 100 (complete control), read-out: Velvetleaf plant response rating): 100%; pest or weed control at 250 g/ha (velvetleaf; 250 g ai/ha, preemergence, scale 0 (no effect) to 100 (complete control), read-out: Velvetleaf plant response rating): 100%; pest or weed control at 31 g/ha (velvetleaf; Preemergence, 31 g ai/ha, scale 0 to 100, 0 no effect, 100 complete control, read-out: Plant response rating, Velvetleaf): 100%; pest or weed control at 62 g/ha (barnyardgrass [2]; 62 g ai/ha, preemergence, scale 0 (no effect) to 100 (complete control), read-out: Barnyardgrass plant response rating): 100%; pest or weed control at 125 g/ha (barnyardgrass [2]; 125 g ai/ha, preemergence, scale 0 (no effect) to 100 (complete control), read-out: Barnyardgrass plant response rating): 100%; pest or weed control at 250 g/ha (barnyardgrass [2]; 250 g ai/ha, preemergence, scale 0 (no effect) to 100 (complete control), read-out: Barnyardgrass plant response rating): 100%; pest or weed control at 31 g/ha (barnyardgrass [2]; Preemergence, 31 g ai/ha, scale 0 to 100, 0 no effect, 100 complete control, read-out: Plant response rating, Barnyardgrass): 80%; pest or weed control at 125 g/ha (giant foxtail [3]; [7]): 100%; pest or weed control at 500 g/ha (giant foxtail [3]; 500 g ai/ha, 0 to 100 scale, 0 no effect, 100 complete control, read-out: Plant response rating Foxtail, Giant): 100%; pest or weed control at 125 g/ha (Italian ryegrass [4]; 125 g ai/ha, postemergence, read-out: Plant response rating (0 to 100), Ryegrass, Italian): 10%; pest or weed control at 250 g/ha (Italian ryegrass [4]; 250 g ai/ha, postemergence, read-out: Plant response rating (0 to 100), Ryegrass, Italian): 30%; pest or weed control at 31 g/ha (Italian ryegrass [4]; Postemergence, 31 g ai/ha, scale 0 to 100 (0 no effect, 100 complete control), 13 to 15 days, read-out: Plant response rating, Ryegrass, Italian): 5%; pest or weed control at 62 g/ha (Italian ryegrass [4]; Postemergence, 62 g ai/ha, scale 0 to 100 (0 no effect, 100 complete control), read-out: Plant response rating, Ryegrass, Italian): 10%; pest or weed control at 125 g/ha (morningglory; 125 g ai/ha, 0 to 100 scale where 0 is no effect and 100 is complete control, read-out: Plant response rating, Morningglory): 90%; pest or weed control at 500 g/ha (morningglory; 500 g ai/ha, 0 to 100 scale, 0 no effect, 100 complete control, read-out: Plant response rating Morningglory): 100%; pest or weed control at 125 g/ha (pigweed; 125 g ai/ha, 0 to 100 scale where 0 is no effect and 100 is complete control, read-out: Plant response rating, Pigweed): 100%; pest or weed control at 500 g/ha (pigweed; 240 h, 500 g ai/ha, 0 to 100 scale, 0 no effect, 100 complete control, read-out: Plant response rating Pigweed): 100%; pest or weed control at 125 g/ha (barnyardgrass [5]; 125 g ai/ha, 0 to 100 scale where 0 is no effect and 100 is complete control, read-out: Plant response rating, Barnyardgrass): 100%; pest or weed control at 500 g/ha (barnyardgrass [5]; 500 g ai/ha, 0 to 100 scale, 0 no effect, 100 complete control, read-out: Plant response rating Barnyardgrass): 100%; pest or weed control at 62 g/ha (Italian ryegrass [6]; 62 g ai/ha, preemergence, scale 0 (no effect) to 100 (complete control), read-out: Ryegrass, Italian plant response rating): 85%; pest or weed control at 125 g/ha (Italian ryegrass [6]; 125 g ai/ha, preemergence, scale 0 (no effect) to 100 (complete control), read-out: Ryegrass, Italian plant response rating): 90%; pest or weed control at 250 g/ha (Italian ryegrass [6]; 250 g ai/ha, preemergence, scale 0 (no effect) to 100 (complete control), read-out: Ryegrass, Italian plant response rating): 90%; pest or weed control at 31 g/ha (Italian ryegrass [6]; Preemergence, 31 g ai/ha, scale 0 to 100, 0 no effect, 100 complete control, read-out: Plant response rating, Ryegrass, Italian): 50%; Soybean plant response rating (crop injury, 0-100 scale) at 125 g/ha (soybean; 125 g ai/ha, postemergence, read-out: Plant response rating (0 to 100), Soybean): 98%; Soybean plant response rating (crop injury, 0-100 scale) at 250 g/ha (soybean; 250 g ai/ha, postemergence): 98%; Soybean plant response rating (crop injury, 0-100 scale) at 31 g/ha (soybean; Postemergence, 31 g ai/ha, scale 0 to 100 (0 no effect, 100 complete control), 13 to 15 days): 75%; Soybean plant response rating (crop injury, 0-100 scale) at 62 g/ha (soybean; Postemergence, 62 g ai/ha, scale 0 to 100 (0 no effect, 100 complete control)): 85%
